{
  "source": "patent US12503473B2",
  "about": "“Triazolopyrimidine compounds and their use in treating cancer” (Dizal (Jiangsu) Pharmaceutical Co., Ltd., priority 2018, dated 2025)",
  "key": {"[1]": {"test_system": "MC38 MCT1 KO murine colorectal cell line", "experiment": "Mouse syngeneic model, αPD-1 antibody combination (second study, FIG. 5)", "assay_type": "in vivo, female C57·B16 mice", "details": "Day 13", "description": "The in vivo efficacy of MCT4 inhibitors has been tested in murine syngeneic models. To test the selective impact of MCT4 inhibitors of Formula (I), MCT1 was knocked-out (KO) of the MC38 syngeneic cell line model using CRISPR precise genome editing. The MC38 MCT1 KO murine colorectal cell line can be grown sub-cutaneously in female C57·B16 mice and tumour volume calculated from bilateral caliper measurements. For efficacy studies, ten million cells were inoculated subcutaneously onto the left flank of the animal in a volume of 0.1 ml serum free DMEM media. Animals were randomised by bodyweight at the time of cell implantation and treatment started the following day. […] In both studies dosing was continued for up to 6 weeks and tumour volume, body weight and tumour condition were recorded three times weekly. […]\nAgain, individual tumour growth profiles are shown with animals taken off study using time to event criteria based on a maximum tumour volume of 1.5 cm^3, tumour condition or animal welfare limits. Due to animals reaching the time to event endpoint at different times during the later stages of the experiment GeoMean percentage inhibition values were calculated on Day 13."}, "[2]": {"test_system": "MC38 MCT1 KO murine colorectal cell line", "experiment": "Mouse syngeneic model, αCTLA4 antibody combination (first study, FIG. 4)", "assay_type": "in vivo, female C57·B16 mice", "details": "Day 15", "description": "The in vivo efficacy of MCT4 inhibitors has been tested in murine syngeneic models. To test the selective impact of MCT4 inhibitors of Formula (I), MCT1 was knocked-out (KO) of the MC38 syngeneic cell line model using CRISPR precise genome editing. The MC38 MCT1 KO murine colorectal cell line can be grown sub-cutaneously in female C57·B16 mice and tumour volume calculated from bilateral caliper measurements. For efficacy studies, ten million cells were inoculated subcutaneously onto the left flank of the animal in a volume of 0.1 ml serum free DMEM media. Animals were randomised by bodyweight at the time of cell implantation and treatment started the following day. In the first of these studies shown in FIG. 4, monotherapy treatment arms received either a compound of Formula (I) (100 mg/kg BID) by oral gavage or αCTLA4 antibody (anti-CTLA-4 9D9 mlgG1 antibody, described in WO200712373) (10 mg/kg twice weekly) intraperitoneally. Combination groups consisted of a compound of Formula (I) (100 or 10 mg/kg PO BID) with αCTLA4 antibody (10 mg/kg IP twice weekly). In the second of these studies shown in FIG. 5, monotherapy treatment arms received either a compound of Formula (I) (30 mg/kg PO BID) with αPD-1 antibody (from Bio X Cell, Catalogue #BE0146, Lot 665417s1, 6.78 mg/mL) (10 mg/kg IP twice weekly). In both studies dosing was continued for up to 6 weeks and tumour volume, body weight and tumour condition were recorded three times weekly. Vehicle was 0.5% hydroxy propyl methyl cellulose/0.1% Tween 80 given twice daily by oral gavage with PBS/a given twice weekly intraperitoneally in both studies.\nIndividual tumour growth profiles are shown with animals taken off study using time to event criteria based on a maximum tumour volume of 1.5 cm^3, tumour condition or animal welfare limits. Due to animals coming off study during the later stages of the experiment, GeoMean percentage inhibition values were calculated on Day 15. […] Monotherapy αCTLA4 (10 mg/kg) was ineffective with 6.1%^NS."}, "[3]": {"test_system": "NCI H358 subcutaneous xenograft", "experiment": "Human lung cancer xenograft model, VEGFR TKI combination", "assay_type": "in vivo, female nude mice", "details": "combination of AZD2171 (3 mg/kg QD) with Example 62 (100 mg/kg BID), oral, 17 days; p<0.001 vs control, p=0.013 vs AZD2171 alone", "experimental": "The in vivo efficacy of MCT4 inhibitors has been tested in human xenograft models. The NSCLC cell line NCI H358 can be grown as a subcutaneous xenograft in female nude mice and tumour volume calculated from bilateral caliper measurements. For efficacy studies three million NCI H358 cells were inoculated sub-cutaneously onto the left flank of the animal in a volume of 0.1 ml serum free media (RPMI) and matrigel. Animals were assigned into treatment groups 14 days after cell implantation and received either AZD2171 (3 mg/kg QD) (Wedge et al., (2005) Cancer Res. 65:4389-4400), a compound of Formula (I) (100 mg/kg BID) or the combination of both by oral gavage. A vehicle control of 0.5% hydroxy propyl methyl cellulose/0.1% Tween 80 was dosed twice daily given orally. Dosing was continued for 17 days and tumour volume, body weight and tumour condition were recorded twice weekly for the duration of the study."}, "MCT1": {"biological_target": "T1, MCT1 (Homo sapiens, UniProt P53985)", "T1 construct": "a human erythroleukemia line predominantly expressing MCT1, a small amount of MCT2 and no MCT4; host or cells: K562", "T1 sequence (P53985 1-500)": "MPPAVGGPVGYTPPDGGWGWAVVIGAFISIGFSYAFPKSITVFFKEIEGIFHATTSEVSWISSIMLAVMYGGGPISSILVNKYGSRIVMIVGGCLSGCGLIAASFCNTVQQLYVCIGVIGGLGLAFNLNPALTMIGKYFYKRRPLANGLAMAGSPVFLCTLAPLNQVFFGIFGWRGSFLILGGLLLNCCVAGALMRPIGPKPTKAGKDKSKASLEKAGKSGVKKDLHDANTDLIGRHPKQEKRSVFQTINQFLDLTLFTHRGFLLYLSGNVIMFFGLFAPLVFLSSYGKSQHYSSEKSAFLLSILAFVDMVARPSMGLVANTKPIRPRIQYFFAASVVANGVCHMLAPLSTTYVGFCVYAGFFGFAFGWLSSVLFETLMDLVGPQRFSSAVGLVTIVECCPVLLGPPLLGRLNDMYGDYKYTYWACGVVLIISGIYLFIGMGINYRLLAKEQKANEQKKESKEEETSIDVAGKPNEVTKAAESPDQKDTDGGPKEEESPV", "experiment": "Assay (c): FLIPR BCECF lactate influx in K562 cells", "assay_type": "cell-based", "details": "mean of at least three repeats, read-out: MCT1 FLIPR pIC50 (K562) (converted)", "quoted_text": "Cells were loaded with the pH sensitive dye BCECFAM(Invitrogen #B11150) before being washed to remove excess dye and seeded into the assay plates—directly onto the test compound—at a density of 15,000 cells/well (NCI—H358) or 30,000 cells/well (K562), in 30 μl HBSS with 1 mM [final] […] Assay plates were lidded and spun in a plate centrifuge at 170 g for 1 minute. Plates were then wrapped in foil and incubated in the dark for 1 hour at room temperature.\nFollowing incubation with test compound, 10 μl of 25 mM Sodium-L-Lactate (Sigma #L7022) made up in HBSS with 1 mM [final] […] This addition was performed directly on the FLIPR Tetra platform (Molecular Devices) as part of a real-time kinetic read protocol. […] A percentage change from base-line was calculated for each test well and values normalised to control wells—treated with either DMSO (maximum assay signal) or chemistry related to that described in this patent (minimum assay signal)—before fitting concentration response curves to determine an IC50 value."}},
  "data": [
    {"compound": "Cc1nc2nc(C)c(O[C@@H]3CCN(c4ccc(-c5ccc(CN6CCOCC6)nn5)cc4)C3)c(C)n2n1", "note": "[Example 62, (R)-4-((6-(4-(3-((2,5,7-trimethyl-[1,2,4]triazolo[1,5-a]pyrimidin-6-yl)oxy)pyrrolidin-1-yl)phenyl)pyridazin-3-yl)methyl)morpholine]", "values": [
      {"measurement": "GeoMean percentage growth inhibition vs vehicle control", "setting": "[1]; Example 62 30 mg/kg PO BID with αPD-1 antibody 10 mg/kg IP twice weekly, p≤0.001", "result": 82.3, "unit": "%"},
      {"measurement": "GeoMean percentage growth inhibition vs vehicle control", "setting": "[1]; Example 62 monotherapy 30 mg/kg PO BID, NS", "result": 30.1, "unit": "%"},
      {"measurement": "GeoMean percentage growth inhibition vs vehicle control", "setting": "[2]; Example 62 10 mg/kg PO BID with αCTLA4 antibody 10 mg/kg IP twice weekly, p≤0.01", "result": 67.4, "unit": "%"},
      {"measurement": "GeoMean percentage growth inhibition vs vehicle control", "setting": "[2]; Example 62 100 mg/kg PO BID with αCTLA4 antibody 10 mg/kg IP twice weekly, p≤0.001, p=0.0311 vs Example 62 alone", "result": 82.2, "unit": "%"},
      {"measurement": "GeoMean percentage growth inhibition vs vehicle control", "setting": "[2]; Example 62 monotherapy 100 mg/kg BID PO, p≤0.05", "result": 60.0, "unit": "%"},
      {"measurement": "tumour regression", "setting": "[3]", "result": 72, "unit": "%"},
      {"measurement": "IC50", "setting": "MCT1", "result": "> 25.1", "unit": "µM"}
    ]}
  ]
}
